The results in this text go back to patent publication US20250214991A1 (Oncopia Therapeutics, Inc. d/b/a/ SK Life Science Labs, priority 2022, published 2025).

Experiment [1] deals with CRBN/DDB1 (Homo sapiens (Human), UniProt Q96SW2). The experiment can be described thus: IC50 measurements for binding to CRBN/DDB1 (HTRF). As to conditions: His tagged CRBN+DDB, Cy5-labeled Thalidomide probe, one hour. An outline of the steps:
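HTRF competition binding with 2 nM His-tagged CRBN-DDB1 complex, 60 nM Cy5-thalidomide probe and 0.4 nM anti-His Tb cryptate in 50 mM HEPES pH 7.5, 1 mM TCEP, 0.01% Brij-35, 50 mM NaCl, 0.1% BSA. Read after 1 h at room temperature; IC50 from four-parameter dose-response fit.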

The target of experiment [2] is IKZF2 (Homo sapiens (Human), UniProt Q96SW2+Q9UKS7). The experiment can be described thus: In vitro IKZF2 HiBit Assay (HEK293T Flp-in-HiBiT cells). Type of experiment: cell-based. As to conditions: HEK293T Flp-in-HiBiT cells, 6 hrs incubation; for DC50: read-out: IKZF2 HiBit DC50; for Dmax: HEK-293T, read-out: IKZF2 HiBit Dmax (%). An outline of the steps:
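HEK293T Flp-in cells carrying an endogenous N-terminal HiBiT tag on IKZF2 were exposed to compound for 6 h at 0.1% DMSO. The dilution series was 11 doses at 3-fold, diluted from 1 mM. Nano-Glo HiBiT lytic luminescence, normalized to DMSO, gave DC50 for 50% degradation and Dmax across the concentration range, both reported in letter bins.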

The target in experiment [3] is IKZF1 (Homo sapiens (Human), UniProt Q13422+Q96SW2). Put plainly: In vitro IKZF1 HiBit Assay (HEK293T Flp-in-HiBiT-IKZF1 stable cell line). Type of experiment: cell-based. Conditions: HEK293T Flp-in-HiBiT-IKZF1 stable cell line, 6 hrs incubation; for DC50: read-out: IKZF1 HiBit DC50; for Dmax: HEK-293T, read-out: IKZF1 HiBit Dmax (%). An outline of the steps:
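HEK293T Flp-in cells carrying N-terminal HiBiT-tagged IKZF1 were exposed to compound (0.1% DMSO) for 6 h at 3000 cells/well. HiBiT luminescence was read after lytic LgBiT detection. DC50 and Dmax were taken from DMSO-normalized dose-response curves.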
In general terms: HiBiT is a short tag that completes a luciferase, so light tracks the accessible tagged protein.

Chain of CRBN/DDB1 (Q96SW2 whole entry, species assumed): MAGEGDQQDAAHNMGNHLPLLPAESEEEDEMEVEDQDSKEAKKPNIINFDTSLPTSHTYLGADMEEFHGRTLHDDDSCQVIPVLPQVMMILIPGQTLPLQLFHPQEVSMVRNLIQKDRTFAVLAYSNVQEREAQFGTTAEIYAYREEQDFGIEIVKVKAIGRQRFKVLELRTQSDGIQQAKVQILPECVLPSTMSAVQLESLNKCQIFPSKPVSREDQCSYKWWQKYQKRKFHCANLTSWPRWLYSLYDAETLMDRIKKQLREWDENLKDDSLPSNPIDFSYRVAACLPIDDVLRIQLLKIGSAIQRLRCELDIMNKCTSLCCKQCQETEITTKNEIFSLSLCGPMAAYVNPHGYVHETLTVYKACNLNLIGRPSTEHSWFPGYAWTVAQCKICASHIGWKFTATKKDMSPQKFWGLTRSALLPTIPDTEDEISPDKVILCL
Chain of CRBN/DDB1 (Q16531 whole entry partner, species assumed): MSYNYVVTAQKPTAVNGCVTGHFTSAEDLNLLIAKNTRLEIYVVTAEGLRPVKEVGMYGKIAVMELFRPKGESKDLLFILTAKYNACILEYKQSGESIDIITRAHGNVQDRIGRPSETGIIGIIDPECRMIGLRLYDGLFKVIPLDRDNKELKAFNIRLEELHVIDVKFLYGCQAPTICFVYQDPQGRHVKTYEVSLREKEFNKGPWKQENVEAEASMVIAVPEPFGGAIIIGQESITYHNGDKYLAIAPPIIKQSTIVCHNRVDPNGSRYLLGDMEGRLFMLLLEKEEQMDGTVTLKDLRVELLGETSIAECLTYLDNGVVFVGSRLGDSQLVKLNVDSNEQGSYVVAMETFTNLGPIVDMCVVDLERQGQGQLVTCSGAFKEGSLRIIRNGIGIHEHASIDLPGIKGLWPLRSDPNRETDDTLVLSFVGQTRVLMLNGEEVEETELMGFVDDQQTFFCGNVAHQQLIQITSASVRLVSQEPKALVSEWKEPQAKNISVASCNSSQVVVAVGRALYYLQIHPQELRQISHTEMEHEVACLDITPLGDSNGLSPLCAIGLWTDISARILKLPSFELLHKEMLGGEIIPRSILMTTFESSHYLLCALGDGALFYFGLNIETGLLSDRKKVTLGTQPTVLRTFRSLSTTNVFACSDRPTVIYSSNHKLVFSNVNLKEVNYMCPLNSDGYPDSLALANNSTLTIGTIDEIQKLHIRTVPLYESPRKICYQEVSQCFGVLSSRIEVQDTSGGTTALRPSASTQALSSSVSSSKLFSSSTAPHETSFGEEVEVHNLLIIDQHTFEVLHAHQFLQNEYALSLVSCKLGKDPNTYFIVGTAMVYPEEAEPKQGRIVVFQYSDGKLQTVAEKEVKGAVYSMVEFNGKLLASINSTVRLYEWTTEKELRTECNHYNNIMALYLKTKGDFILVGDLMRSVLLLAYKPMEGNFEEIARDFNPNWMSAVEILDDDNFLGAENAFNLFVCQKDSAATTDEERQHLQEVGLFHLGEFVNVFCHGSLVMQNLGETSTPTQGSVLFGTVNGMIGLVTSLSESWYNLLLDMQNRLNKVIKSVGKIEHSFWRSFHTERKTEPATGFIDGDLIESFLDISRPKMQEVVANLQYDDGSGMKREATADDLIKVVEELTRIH
Chain of IKZF2 (Q9UKS7 whole entry): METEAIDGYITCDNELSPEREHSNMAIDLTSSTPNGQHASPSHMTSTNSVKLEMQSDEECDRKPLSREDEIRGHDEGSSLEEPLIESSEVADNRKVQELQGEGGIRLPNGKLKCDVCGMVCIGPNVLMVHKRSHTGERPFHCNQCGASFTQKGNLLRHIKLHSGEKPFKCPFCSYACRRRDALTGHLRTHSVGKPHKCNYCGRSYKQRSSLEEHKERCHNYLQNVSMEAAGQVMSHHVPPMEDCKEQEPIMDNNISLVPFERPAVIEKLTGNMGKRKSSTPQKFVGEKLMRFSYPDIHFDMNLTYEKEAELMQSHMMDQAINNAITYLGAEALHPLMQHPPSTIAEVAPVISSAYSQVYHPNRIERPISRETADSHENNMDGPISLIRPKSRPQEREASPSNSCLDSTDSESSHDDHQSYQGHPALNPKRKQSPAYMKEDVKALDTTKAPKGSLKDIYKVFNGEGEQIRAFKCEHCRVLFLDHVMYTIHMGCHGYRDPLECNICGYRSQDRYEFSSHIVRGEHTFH
Chain of IKZF2 (Q96SW2 whole entry): as the sequence (Q96SW2 whole entry, species assumed) above
Chain of IKZF2 (Q16531 2-1140 partner): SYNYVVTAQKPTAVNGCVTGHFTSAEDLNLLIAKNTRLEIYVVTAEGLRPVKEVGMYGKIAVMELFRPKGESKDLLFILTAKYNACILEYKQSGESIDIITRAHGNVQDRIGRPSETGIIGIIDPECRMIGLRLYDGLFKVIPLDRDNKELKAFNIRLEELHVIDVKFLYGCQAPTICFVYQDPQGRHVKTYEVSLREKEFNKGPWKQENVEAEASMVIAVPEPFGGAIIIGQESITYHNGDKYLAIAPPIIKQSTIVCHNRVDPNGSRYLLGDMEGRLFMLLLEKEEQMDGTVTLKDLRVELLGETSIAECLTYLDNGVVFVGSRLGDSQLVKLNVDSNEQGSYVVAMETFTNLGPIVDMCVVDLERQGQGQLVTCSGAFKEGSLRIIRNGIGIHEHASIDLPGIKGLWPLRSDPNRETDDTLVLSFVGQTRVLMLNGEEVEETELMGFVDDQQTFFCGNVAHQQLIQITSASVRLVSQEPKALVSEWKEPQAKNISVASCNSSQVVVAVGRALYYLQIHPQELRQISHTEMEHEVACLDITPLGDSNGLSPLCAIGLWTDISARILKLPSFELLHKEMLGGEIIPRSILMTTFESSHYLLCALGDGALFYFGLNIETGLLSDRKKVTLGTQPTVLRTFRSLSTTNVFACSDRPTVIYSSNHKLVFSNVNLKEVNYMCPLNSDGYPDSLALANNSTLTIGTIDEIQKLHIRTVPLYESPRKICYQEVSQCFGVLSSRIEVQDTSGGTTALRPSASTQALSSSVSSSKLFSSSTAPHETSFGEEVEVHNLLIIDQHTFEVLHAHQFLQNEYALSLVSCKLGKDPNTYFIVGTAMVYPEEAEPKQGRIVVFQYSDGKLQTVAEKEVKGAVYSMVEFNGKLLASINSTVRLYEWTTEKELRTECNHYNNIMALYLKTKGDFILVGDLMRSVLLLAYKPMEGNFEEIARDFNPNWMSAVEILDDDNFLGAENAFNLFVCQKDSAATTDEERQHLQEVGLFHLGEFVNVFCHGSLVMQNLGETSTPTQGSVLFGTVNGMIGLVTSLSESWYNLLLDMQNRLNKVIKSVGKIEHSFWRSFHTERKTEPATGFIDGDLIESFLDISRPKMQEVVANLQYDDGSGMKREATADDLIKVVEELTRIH
Chain of IKZF1 (Q13422 whole entry): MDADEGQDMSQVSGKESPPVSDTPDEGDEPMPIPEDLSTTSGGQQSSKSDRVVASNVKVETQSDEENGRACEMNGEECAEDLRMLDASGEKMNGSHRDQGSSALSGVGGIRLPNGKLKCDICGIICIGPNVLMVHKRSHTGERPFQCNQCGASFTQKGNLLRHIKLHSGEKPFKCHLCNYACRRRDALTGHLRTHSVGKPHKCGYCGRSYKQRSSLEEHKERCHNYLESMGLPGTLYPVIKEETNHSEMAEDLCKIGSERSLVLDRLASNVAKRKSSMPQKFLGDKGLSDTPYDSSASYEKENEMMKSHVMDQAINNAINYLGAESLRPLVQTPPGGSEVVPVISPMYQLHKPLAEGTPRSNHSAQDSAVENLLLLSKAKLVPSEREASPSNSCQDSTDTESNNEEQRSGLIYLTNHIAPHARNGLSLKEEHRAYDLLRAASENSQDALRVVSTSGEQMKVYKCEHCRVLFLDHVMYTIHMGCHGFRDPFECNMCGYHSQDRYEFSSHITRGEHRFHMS
Chain of IKZF1 (Q96SW2 whole entry): as the sequence (Q96SW2 whole entry, species assumed) above
Chain of IKZF1 (Q16531 2-1140 partner): as the sequence (Q16531 2-1140 partner) above

The term IC50 denotes the concentration at which inhibition is half-maximal. Lower therefore signals greater potency in that assay. In turn, `Cn1ccc2c(CN3CCC4(CC3)COC4)cc(-c3ccc4c(c3)CN(C3CCC(=O)NC3=O)C4=O)nc21` (stereo not shown) [Example 73, 3-(5-(4-((2-oxa-7-azaspiro[3.5]nonan-7-yl)methyl)-1-methyl-1H-pyrrolo[2,3-b]pyridin-6-yl)-1-oxoisoindolin-2-yl) piperidine-2,6-dione] showed an IC50 in experiment [1] of 100 to 500 nM. Besides, in experiment [2], the DC50 was in the range of 1 to 10 nM and the Dmax was > 80%. Moreover, in experiment [3], the DC50 was > 10 µM and the Dmax lay in the range of 20 to 40%.
The matching figures for `CC(C)n1ccc2c(CN3CCCC3)cc(-c3ccc4c(c3)CN(C3CCC(=O)NC3=O)C4=O)nc21` (stereo not shown) [Example 299, 3-(5-(1-isopropyl-4-(pyrrolidin-1-ylmethyl)-1H-pyrrolo[2,3-b]pyridin-6-yl)-1-oxoisoindolin-2-yl) piperidine-2,6-dione]: 500 to 1000 nM, 1 to 10 nM, 60 to 80%, > 10 µM and < 20%.
As to `COc1cc2c(cc1-c1cc(CN3CCCC3)cc3cncn13)CN(C1CCC(=O)NC1=O)C2=O` (stereo not shown) [Example 30, 3-(6-methoxy-1-oxo-5-(7-(pyrrolidin-1-ylmethyl)imidazo[1,5-a]pyridin-5-yl)isoindolin-2-yl) piperidine-2,6-dione], the IC50 in experiment [1] was in the range of 1000 to 5000 nM. Moreover, in experiment [2], the DC50 lay in the range of 1000 to 10000 nM and the Dmax is < 20%. Also, in experiment [3], the DC50 was > 10 µM and the Dmax is < 20%.
`Cn1ccc2c(CN3CCN4CCCC4C3)cc(-c3ccc4c(c3)CN(C3CCC(=O)NC3=O)C4=O)nc21` (stereo not shown) [Example 95, 3-(5-(4-((hexahydropyrrolo[1,2-a]pyrazin-2 (1H)-yl)methyl)-1-methyl-1H-pyrrolo[2,3-b]pyridin-6-yl)-1-oxoisoindolin-2-yl) piperidine-2,6-dione] displayed an IC50 in experiment [1] of 100 to 500 nM. In addition, in experiment [2], the DC50 was 1 to 10 nM and the Dmax lay within 60 to 80%. Also, in experiment [3], the DC50 was > 10 µM and the Dmax is < 20%.
In experiment [1], `Cn1ncc2nc(-c3ccc4c(c3)CN(C3CCC(=O)NC3=O)C4=O)cc(CN3CCCC3)c21` (stereo not shown) [Example 310, 3-(5-(1-methyl-7-(pyrrolidin-1-ylmethyl)-1H-pyrazolo[4,3-b]pyridin-5-yl)-1-oxoisoindolin-2-yl) piperidine-2,6-dione] gave an IC50 of 500 to 1000 nM. Further, the DC50 in experiment [2] is < 1 nM; in experiment [3] it was > 10 µM. Besides, the Dmax in experiment [2] was > 80%; in experiment [3], < 20%.
On the same counts, the results for `CN(C)C(=O)Cn1ccc2c(CN3CCCC3)cc(-c3ccc4c(c3)CN(C3CCC(=O)NC3=O)C4=O)nc21` (stereo not shown) [Example 149, 2-(6-(2-(2,6-dioxopiperidin-3-yl)-1-oxoisoindolin-5-yl)-4-(pyrrolidin-1-ylmethyl)-1H-pyrrolo[2,3-b]pyridin-1-yl)-N,N-dimethylacetamide] are 1000 to 5000 nM, 100 to 1000 nM, > 10 µM, 20 to 40% and < 20%.
The matching figures for `Nc1nn(C2COC2)c2c(CN3CCCC3)cc(-c3ccc4c(c3)CN(C3CCC(=O)NC3=O)C4=O)nc12` (stereo not shown) [Example 234, 3-(5-(3-amino-1-(oxetan-3-yl)-7-(pyrrolidin-1-ylmethyl)-1H-pyrazolo[4,3-b]pyridin-5-yl)-1-oxoisoindolin-2-yl) piperidine-2,6-dione]: 1000 to 5000 nM, 10 to 100 nM, 1 to 10 µM, 60 to 80% and 20 to 40%.
The matching figures for `Cn1ccc2c(CN3CCC(CO)C3)cc(-c3ccc4c(c3)CN(C3CCC(=O)NC3=O)C4=O)nc21` (stereo not shown) [Example 96, 3-(5-(4-((3-(hydroxymethyl)pyrrolidin-1-yl)methyl)-1-methyl-1H-pyrrolo[2,3-b]pyridin-6-yl)-1-oxoisoindolin-2-yl) piperidine-2,6-dione]: 100 to 500 nM, 1 to 10 nM, 0.01 to 0.1 µM, > 80% and 20 to 40%.
For `O=C1CCC(N2Cc3cc(-c4cc(CN5CC6COCC(C6)C5)c5ccn(C6COC6)c5n4)ccc3C2=O)C(=O)N1` (stereo not shown) [Example 191, 3-(5-(4-((3-oxa-7-azabicyclo[3.3.1]nonan-7-yl)methyl)-1-(oxetan-3-yl)-1H-pyrrolo[2,3-b]pyridin-6-yl)-1-oxoisoindolin-2-yl) piperidine-2,6-dione], the IC50 in experiment [1] is 1000 to 5000 nM. For the same molecule, in experiment [2], the DC50 was in the range of 1 to 10 nM and the Dmax is 60 to 80%. Besides, in experiment [3], the DC50 was > 10 µM and the Dmax was < 20%.
`Cn1ccc2nc(-c3ccc4c(c3)CN(C3CCC(=O)NC3=O)C4=O)cc(CN3CCC3)c21` (stereo not shown) [Example 110, 3-(5-(7-(azetidin-1-ylmethyl)-1-methyl-1H-pyrrolo[3,2-b]pyridin-5-yl)-1-oxoisoindolin-2-yl) piperidine-2,6-dione] displayed an IC50 in experiment [1] of 500 to 1000 nM. In addition, in experiment [2], the DC50 was 1 to 10 nM and the Dmax was > 80%. In addition, in experiment [3], the DC50 is > 10 µM and the Dmax is < 20%.
The matching figures for `Cn1ccc2c(CN3CCn4nccc4C3)cc(-c3ccc4c(c3)CN(C3CCC(=O)NC3=O)C4=O)nc21` (stereo not shown) [Example 107, 3-(5-(4-((6,7-dihydropyrazolo[1,5-a]pyrazin-5 (4H)-yl)methyl)-1-methyl-1H-pyrrolo[2,3-b]pyridin-6-yl)-1-oxoisoindolin-2-yl) piperidine-2,6-dione]: 100 to 500 nM, 10 to 100 nM, 40 to 60%, > 10 µM and < 20%.
The matching figures for `Cn1ccc2c(CN3Cc4ccccc4C3)cc(-c3ccc4c(c3)CN(C3CCC(=O)NC3=O)C4=O)nc21` (stereo not shown) [Example 67, 3-(5-(4-(isoindolin-2-ylmethyl)-1-methyl-1H-pyrrolo[2,3-b]pyridin-6-yl)-1-oxoisoindolin-2-yl) piperidine-2,6-dione]: 500 to 1000 nM, 1 to 10 nM, 60 to 80%, > 10 µM and 20 to 40%.
The matching figures for `Cn1ccc2c(O[C@@H]3CCNC3)cc(-c3ccc4c(c3)CN([C@H]3CCC(=O)NC3=O)C4=O)nc21` [Example 219, (S)-3-(5-(1-methyl-4-(((R)-pyrrolidin-3-yl)oxy)-1H-pyrrolo[2,3-b]pyridin-6-yl)-1-oxoisoindolin-2-yl) piperidine-2,6-dione]: 1000 to 5000 nM, 10 to 100 nM, 40 to 60%, 0.1 to 1 µM and 20 to 40%.
In experiment [1], `N#CC1CCN(Cc2cc(-c3ccc4c(c3)CN(C3CCC(=O)NC3=O)C4=O)nc3c2ccn3C2COC2)CC1` (stereo not shown) [Example 192, 1-((6-(2-(2,6-dioxopiperidin-3-yl)-1-oxoisoindolin-5-yl)-1-(oxetan-3-yl)-1H-pyrrolo[2,3-b]pyridin-4-yl)methyl) piperidine-4-carbonitrile] had an IC50 of 1000 to 5000 nM. Moreover, the DC50 in experiment [2] is 10 to 100 nM; in experiment [3] it was > 10 µM. Moreover, the Dmax was 60 to 80% in experiment [2] and < 20% in experiment [3].
The molecule `Cn1ccc2c(CN3CCCC3CO)cc(-c3ccc4c(c3)CN(C3CCC(=O)NC3=O)C4=O)nc21` (stereo not shown) [Example 101, 3-(5-(4-((2-(hydroxymethyl)pyrrolidin-1-yl)methyl)-1-methyl-1H-pyrrolo[2,3-b]pyridin-6-yl)-1-oxoisoindolin-2-yl) piperidine-2,6-dione] gave an IC50 in experiment [1] of 100 to 500 nM. Moreover, in experiment [2], the DC50 lay in the range of 1 to 10 nM and the Dmax was > 80%. For the same molecule, in experiment [3], the DC50 is > 10 µM and the Dmax was < 20%.
`O=C1CCC(N2Cc3cc(-c4cc(CN5CCC(O)CC5)c5cc[nH]c5n4)ccc3C2=O)C(=O)N1` (stereo not shown) [Example 125, 3-(5-(4-((4-hydroxypiperidin-1-yl)methyl)-1H-pyrrolo[2,3-b]pyridin-6-yl)-1-oxoisoindolin-2-yl) piperidine-2,6-dione] came in with an IC50 in experiment [1] of 100 to 500 nM. Moreover, the DC50 lay within 10 to 100 nM in experiment [2] and 0.1 to 1 µM in experiment [3]. Also, the Dmax was > 80% in experiment [2] and 20 to 40% in experiment [3].
On the same counts, the results for `CCn1ccc2nc(-c3ccc4c(c3)CN(C3CCC(=O)NC3=O)C4=O)cc(CN3CCC3)c21` (stereo not shown) [Example 124, 3-(5-(7-(azetidin-1-ylmethyl)-1-ethyl-1H-pyrrolo[3,2-b]pyridin-5-yl)-1-oxoisoindolin-2-yl) piperidine-2,6-dione] are 1000 to 5000 nM, 1 to 10 nM, 0.01 to 0.1 µM, > 80% and 20 to 40%.
